# Assay results reported in ChEMBL document CHEMBL5120836, “Discovery of novel 7,8-dihydropteridine-6(5H)-one-based DNA-PK inhibitors as potential anticancer agents via scaffold hopping strategy” (Eur J Med Chem, 2022).
# Assays:
# HCT-116 [1] = test: Synergistic antiproliferative activity against human HCT-116 cells assessed as combination index at 1 uM in presence of 100 nM doxorubicin by MTT assay; type: functional
# [2] = target: Phosphatidylinositol 4,5-bisphosphate 3-kinase catalytic subunit alpha isoform (Homo sapiens, UniProt P42336); test: Inhibition of human PI3Kalpha by Kinase-Glo assay; type: toxicity
# Chain of Phosphatidylinositol 4,5-bisphosphate 3-kinase catalytic subunit alpha isoform (P42336 whole entry, canonical isoform): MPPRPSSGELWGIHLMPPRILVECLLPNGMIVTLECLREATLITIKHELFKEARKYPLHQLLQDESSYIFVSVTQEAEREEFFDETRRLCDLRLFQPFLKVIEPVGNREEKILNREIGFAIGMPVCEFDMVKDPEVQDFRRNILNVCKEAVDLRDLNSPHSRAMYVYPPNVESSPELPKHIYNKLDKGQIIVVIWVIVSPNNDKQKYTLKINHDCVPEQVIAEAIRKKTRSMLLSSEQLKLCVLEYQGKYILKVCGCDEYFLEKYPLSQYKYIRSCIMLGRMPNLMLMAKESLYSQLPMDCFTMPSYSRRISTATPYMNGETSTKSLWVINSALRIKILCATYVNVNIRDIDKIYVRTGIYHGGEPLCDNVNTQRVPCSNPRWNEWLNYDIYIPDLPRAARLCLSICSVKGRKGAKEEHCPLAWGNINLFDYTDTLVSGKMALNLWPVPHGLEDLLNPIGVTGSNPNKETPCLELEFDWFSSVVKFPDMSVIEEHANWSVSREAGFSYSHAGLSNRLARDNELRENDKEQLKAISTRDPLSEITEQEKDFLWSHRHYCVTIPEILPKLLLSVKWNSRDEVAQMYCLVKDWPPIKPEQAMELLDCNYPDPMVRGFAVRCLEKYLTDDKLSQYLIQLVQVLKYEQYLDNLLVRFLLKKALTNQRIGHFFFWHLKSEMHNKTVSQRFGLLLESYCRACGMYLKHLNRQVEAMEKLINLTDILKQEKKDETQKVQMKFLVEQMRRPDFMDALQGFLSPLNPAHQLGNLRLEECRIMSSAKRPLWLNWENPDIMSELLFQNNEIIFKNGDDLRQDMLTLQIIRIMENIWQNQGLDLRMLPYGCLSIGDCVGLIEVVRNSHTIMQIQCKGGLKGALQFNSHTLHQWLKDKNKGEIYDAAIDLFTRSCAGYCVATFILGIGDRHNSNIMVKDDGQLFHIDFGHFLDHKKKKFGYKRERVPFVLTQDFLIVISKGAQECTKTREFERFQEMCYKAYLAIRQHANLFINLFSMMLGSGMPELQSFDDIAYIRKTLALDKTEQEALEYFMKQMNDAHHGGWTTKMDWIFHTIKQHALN
# [3] = target: Phosphatidylinositol 4,5-bisphosphate 3-kinase catalytic subunit gamma isoform (Homo sapiens, UniProt P48736); test: Inhibition of human PI3Kgamma by ADP-Glo assay; type: toxicity
# Chain of Phosphatidylinositol 4,5-bisphosphate 3-kinase catalytic subunit gamma isoform (P48736 whole entry, canonical isoform): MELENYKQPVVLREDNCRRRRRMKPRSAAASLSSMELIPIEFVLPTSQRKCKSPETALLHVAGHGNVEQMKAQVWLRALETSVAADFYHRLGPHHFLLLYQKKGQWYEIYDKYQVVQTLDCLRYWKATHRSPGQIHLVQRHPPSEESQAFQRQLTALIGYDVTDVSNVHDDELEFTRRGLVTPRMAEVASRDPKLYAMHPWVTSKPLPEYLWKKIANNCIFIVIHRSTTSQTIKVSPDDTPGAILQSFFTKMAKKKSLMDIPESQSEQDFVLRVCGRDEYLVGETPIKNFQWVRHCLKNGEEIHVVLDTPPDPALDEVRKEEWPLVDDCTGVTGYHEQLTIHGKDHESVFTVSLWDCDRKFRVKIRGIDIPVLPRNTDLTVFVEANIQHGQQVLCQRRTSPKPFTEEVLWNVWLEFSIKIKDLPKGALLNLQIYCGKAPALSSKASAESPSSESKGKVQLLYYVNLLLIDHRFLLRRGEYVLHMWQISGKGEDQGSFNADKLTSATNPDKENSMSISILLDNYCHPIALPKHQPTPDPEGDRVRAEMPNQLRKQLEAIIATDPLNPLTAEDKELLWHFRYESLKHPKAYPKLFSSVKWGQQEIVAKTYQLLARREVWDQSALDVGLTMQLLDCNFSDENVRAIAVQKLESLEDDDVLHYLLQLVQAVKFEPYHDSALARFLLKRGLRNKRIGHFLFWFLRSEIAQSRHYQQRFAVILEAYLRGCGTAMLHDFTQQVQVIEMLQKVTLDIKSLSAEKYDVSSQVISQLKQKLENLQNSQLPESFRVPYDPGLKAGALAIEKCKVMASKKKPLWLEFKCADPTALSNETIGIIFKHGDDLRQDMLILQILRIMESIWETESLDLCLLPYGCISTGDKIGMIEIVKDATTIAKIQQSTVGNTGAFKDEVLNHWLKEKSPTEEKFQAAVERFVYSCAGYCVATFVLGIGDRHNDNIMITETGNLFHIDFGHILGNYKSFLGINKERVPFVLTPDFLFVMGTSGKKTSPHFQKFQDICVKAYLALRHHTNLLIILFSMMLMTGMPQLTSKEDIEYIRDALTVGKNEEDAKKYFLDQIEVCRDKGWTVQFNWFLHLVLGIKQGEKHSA
# [4] = target: T1, Phosphatidylinositol 4,5-bisphosphate 3-kinase catalytic subunit delta isoform (Homo sapiens, UniProt O00329); test: Inhibition of human PI3Kdelta by ADP-Glo assay; type: toxicity
# T1 sequence (O00329 whole entry): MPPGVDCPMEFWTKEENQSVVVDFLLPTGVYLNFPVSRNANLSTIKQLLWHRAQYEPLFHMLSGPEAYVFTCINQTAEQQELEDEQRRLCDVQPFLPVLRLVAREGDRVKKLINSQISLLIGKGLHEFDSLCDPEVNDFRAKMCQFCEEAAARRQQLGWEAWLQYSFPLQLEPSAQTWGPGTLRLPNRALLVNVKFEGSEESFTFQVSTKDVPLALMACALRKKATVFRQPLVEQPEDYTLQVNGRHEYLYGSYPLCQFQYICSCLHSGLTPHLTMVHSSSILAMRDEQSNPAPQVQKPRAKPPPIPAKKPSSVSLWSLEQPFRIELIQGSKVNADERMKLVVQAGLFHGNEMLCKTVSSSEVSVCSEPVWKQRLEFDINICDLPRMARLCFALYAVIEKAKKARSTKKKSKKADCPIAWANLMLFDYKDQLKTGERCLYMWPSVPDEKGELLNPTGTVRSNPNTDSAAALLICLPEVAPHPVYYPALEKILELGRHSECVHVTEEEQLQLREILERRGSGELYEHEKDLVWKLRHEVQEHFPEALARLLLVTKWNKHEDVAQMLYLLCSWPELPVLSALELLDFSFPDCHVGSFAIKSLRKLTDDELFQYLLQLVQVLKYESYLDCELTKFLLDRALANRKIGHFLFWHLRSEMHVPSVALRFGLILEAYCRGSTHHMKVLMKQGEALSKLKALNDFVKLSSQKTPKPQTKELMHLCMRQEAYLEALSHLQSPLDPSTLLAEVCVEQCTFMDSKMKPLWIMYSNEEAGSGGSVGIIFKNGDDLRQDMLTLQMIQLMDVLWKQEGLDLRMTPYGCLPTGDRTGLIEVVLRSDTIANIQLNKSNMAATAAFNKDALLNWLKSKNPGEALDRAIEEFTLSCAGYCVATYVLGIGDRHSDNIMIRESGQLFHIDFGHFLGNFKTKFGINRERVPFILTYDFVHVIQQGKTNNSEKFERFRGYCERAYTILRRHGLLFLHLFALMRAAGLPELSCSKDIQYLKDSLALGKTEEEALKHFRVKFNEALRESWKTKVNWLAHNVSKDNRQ
# HCT-116 [5] = test: Synergistic antiproliferative activity against human HCT-116 cells assessed as combination index at 100 uM incubated for 48 hrs in presence of 0.1 to 50 uM doxorubicin by MTT assay; type: functional
# HL-60 [6] = test: Synergistic antiproliferative activity against human HL-60 cells assessed as inhibition of cell growth in presence of 100 nM doxorubicin by MTT assay; type: functional, cell-based
# HCT-116 [7] = test: Induction of apoptosis in human HCT-116 cells assessed as viable cells at 1 uM incubated for 24 hrs by AnnexinV-FITC/PI staining based flow cytometry (reference value: 93.9%); type: functional; settings: read-out: Activity
# HCT-116 [8] = test: Disruption of mitochondrial function in human HCT-116 cells assessed as decrease in mitochondrial membrane potential by measuring proportion of cells with red fluorescence at 1 uM incubated for 24 hrs by JC-1 staining based flow cytometry (reference value: 99.4%); type: functional; design: scale not given: the % may be the effect or the level left
# HCT-116 [9] = test: Induction of apoptosis in human HCT-116 cells assessed as early apoptotic cells at 1 uM incubated for 24 hrs by AnnexinV-FITC/PI staining based flow cytometry (reference value: 3.04%); type: functional
# HCT-116 [10] = test: Induction of apoptosis in human HCT-116 cells assessed as late apoptotic cells at 1 uM incubated for 24 hrs by AnnexinV-FITC/PI staining based flow cytometry (reference value: 3.07%); type: functional
# HL-60 [11] = test: Synergistic antiproliferative activity against human HL-60 cells assessed as combination index at 3.1 uM in presence of 0.1 uM doxorubicin by MTT assay; type: functional
# HL-60 [12] = test: Synergistic antiproliferative activity against human HL-60 cells assessed as combination index at 25 uM in presence of 0.1 uM doxorubicin by MTT assay; type: functional
# MCF7 [13] = test: Synergistic antiproliferative activity against human MCF7 cells assessed as combination index at 0.1 uM in presence of 0.1 uM doxorubicin by MTT assay; type: functional
# MCF7 [14] = test: Synergistic antiproliferative activity against human MCF7 cells assessed as combination index at 12.5 uM in presence of 0.1 uM doxorubicin by MTT assay; type: functional
# MCF7 [15] = test: Synergistic antiproliferative activity against human MCF7 cells assessed as combination index at 100 uM in presence of 0.1 uM doxorubicin by MTT assay; type: functional
# MCF7 [16] = test: Synergistic antiproliferative activity against human MCF7 cells assessed as combination index at 200 uM in presence of 0.1 uM doxorubicin by MTT assay; type: functional
# MDA-MB-231 [17] = test: Synergistic antiproliferative activity against human MDA-MB-231 cells assessed as combination index at 50 uM in presence of 0.1 uM doxorubicin by MTT assay; type: functional
# MDA-MB-231 [18] = test: Synergistic antiproliferative activity against human MDA-MB-231 cells assessed as combination index at 100 uM in presence of 0.1 uM doxorubicin by MTT assay; type: functional
# HepG2 [19] = test: Synergistic antiproliferative activity against Doxorubicin-resistant human HepG2 cells assessed as combination index at 0.1 uM in presence of 0.1 uM doxorubicin by MTT assay; type: functional
# HepG2 [20] = test: Synergistic antiproliferative activity against Doxorubicin-resistant human HepG2 cells assessed as combination index at 6.25 uM in presence of 0.1 uM doxorubicin by MTT assay; type: functional
# HCT-116 [21] = test: Induction of apoptosis in human HCT-116 cells assessed as late apoptotic cells at 1 uM incubated for 24 hrs in presence of 100 nM doxorubicin by AnnexinV-FITC/PI staining based flow cytometry (reference value: 3.07%); type: functional
# [22] = Half life in rat liver microsomes; type: ADME, Microsome
# [23] = MRT (0 to infinity) in Sprague-Dawley rat at 5 mg/kg, po; type: ADME, organism-based; settings: in vivo
# HL-60 [24] = test: Synergistic antitumor activity against human HL-60 cells xenografted in BALB/c nude mouse assessed as tumor volume at 100 mg/kg, po qd for 16 days co-administered with doxorubicin (reference value: 32.2%); type: functional; settings: HL-60, 384 h, time 16 day
# [25] = Toxicity in BALB/c nude mouse xenografted with human HL-60 cells assessed as HCT level at 100 mg/kg, po qd for 16 days (reference value: 66.3%); type: organism-based; settings: in vivo, 384 h, time 16 day
# in vitro = settings: human, Caco-2
# Description: Efflux ratio of apparent permeability across basolateral to apical side over apical to basolateral side in human Caco-2 cells
compound,measurement,setting,value
Cc1cc2ncnn2cc1Nc1ncc2c(n1)N(C1CCOCC1)CC(=O)N2C,CI,HCT-116 [1],0.74
same,IC50,[2],187 nM
same,IC50,[3],281 nM
same,IC50,[4],758 nM
same,CI,HCT-116 [5],<0.1
same,IC50,HL-60 [6],< 100 nM
same,viability at 1 µM,HCT-116 [7],92.5%
same,Activity,HCT-116 [8],96.4%
same,Activity,HCT-116 [9],3.46%
same,Activity,HCT-116 [10],4.05%
same,CI,HL-60 [11],0.01772
same,CI,HL-60 [12],0.1382
same,CI,MCF7 [13],0.2844
same,CI,MCF7 [14],0.06131
same,CI,MCF7 [15],0.2764
same,CI,MCF7 [16],0.2697
same,CI,MDA-MB-231 [17],0.705
same,CI,MDA-MB-231 [18],0.9806
same,CI,HepG2 [19],0.06059
same,CI,HepG2 [20],0.0268
same,Activity,HCT-116 [21],7.51%
same,half-life,[22],> 2.42 h
same,MRT inf,[23],2.29 h
same,inhibition in vivo at 100 mg/kg,HL-60 [24],62.4%
same,Activity,[25],65.1%
same,efflux ratio,in vitro,4.84
